± gives the expanded uncertainty stated by the source.
Details: Liquid, Vibrating tube method

CCCC[n+]1cccc(C)c1.N#C[N-]C#N [1-butyl-3-methylpyridinium dicyanamide]
Details	mass density [kg/m3]
283.15 K, 100 kPa	1058.8 ± 0.96
283.15 K, 5000 kPa	1060.66 ± 0.97
283.15 K, 10000 kPa	1062.55 ± 0.99
283.15 K, 15000 kPa	1064.33 ± 1
283.15 K, 20000 kPa	1066.19 ± 1
283.15 K, 25000 kPa	1067.75 ± 1
288.15 K, 100 kPa	1055.64 ± 0.95
288.15 K, 5000 kPa	1057.59 ± 0.97
288.15 K, 10000 kPa	1059.47 ± 0.98
288.15 K, 15000 kPa	1061.24 ± 1
288.15 K, 20000 kPa	1063.09 ± 1
288.15 K, 25000 kPa	1064.88 ± 1
288.15 K, 30000 kPa	1066.59 ± 1.1
288.15 K, 35000 kPa	1068.35 ± 1.1
288.15 K, 40000 kPa	1070.07 ± 1.1
288.15 K, 45000 kPa	1071.67 ± 1.1
288.15 K, 50000 kPa	1073.24 ± 1.1
293.15 K, 100 kPa	1052.56 ± 0.95
293.15 K, 5000 kPa	1054.46 ± 0.96
293.15 K, 10000 kPa	1056.37 ± 0.98
293.15 K, 15000 kPa	1058.23 ± 0.99
293.15 K, 20000 kPa	1060.01 ± 1
293.15 K, 25000 kPa	1061.8 ± 1
293.15 K, 30000 kPa	1063.56 ± 1
293.15 K, 35000 kPa	1065.35 ± 1.1
293.15 K, 40000 kPa	1066.96 ± 1.1
293.15 K, 45000 kPa	1068.69 ± 1.1
293.15 K, 50000 kPa	1070.15 ± 1.1
293.15 K, 55000 kPa	1072.13 ± 1.1
293.15 K, 60000 kPa	1073.41 ± 1.2
293.15 K, 65000 kPa	1074.96 ± 1.2
298.15 K, 100 kPa	1049.45 ± 0.94
298.15 K, 5000 kPa	1051.35 ± 0.95
298.15 K, 10000 kPa	1053.24 ± 0.97
298.15 K, 15000 kPa	1055.19 ± 0.98
298.15 K, 20000 kPa	1057.08 ± 1
298.15 K, 25000 kPa	1058.87 ± 1
298.15 K, 30000 kPa	1060.59 ± 1
298.15 K, 35000 kPa	1062.37 ± 1.1
298.15 K, 40000 kPa	1064.1 ± 1.1
298.15 K, 45000 kPa	1065.73 ± 1.1
298.15 K, 50000 kPa	1067.37 ± 1.1
298.15 K, 55000 kPa	1069.04 ± 1.1
298.15 K, 60000 kPa	1070.61 ± 1.1
298.15 K, 65000 kPa	1072.1 ± 1.2
303.15 K, 100 kPa	1046.36 ± 0.93
303.15 K, 5000 kPa	1048.3 ± 0.95
303.15 K, 10000 kPa	1050.18 ± 0.96
303.15 K, 15000 kPa	1052.05 ± 0.97
303.15 K, 20000 kPa	1053.94 ± 0.99
303.15 K, 25000 kPa	1055.82 ± 1
303.15 K, 30000 kPa	1057.57 ± 1
303.15 K, 35000 kPa	1059.35 ± 1
303.15 K, 40000 kPa	1061.07 ± 1.1
303.15 K, 45000 kPa	1062.75 ± 1.1
303.15 K, 50000 kPa	1064.4 ± 1.1
303.15 K, 55000 kPa	1066.19 ± 1.1
303.15 K, 60000 kPa	1067.59 ± 1.1
303.15 K, 65000 kPa	1069.21 ± 1.2
308.15 K, 100 kPa	1043.21 ± 0.93
308.15 K, 5000 kPa	1045.23 ± 0.94
308.15 K, 10000 kPa	1047.28 ± 0.95
308.15 K, 15000 kPa	1049.14 ± 0.97
308.15 K, 20000 kPa	1051.02 ± 0.98
308.15 K, 25000 kPa	1052.92 ± 1
308.15 K, 30000 kPa	1054.8 ± 1
308.15 K, 35000 kPa	1056.51 ± 1
308.15 K, 40000 kPa	1058.23 ± 1.1
308.15 K, 45000 kPa	1059.9 ± 1.1
308.15 K, 50000 kPa	1061.71 ± 1.1
308.15 K, 55000 kPa	1063.27 ± 1.1
308.15 K, 60000 kPa	1064.76 ± 1.1
308.15 K, 65000 kPa	1066.44 ± 1.1
313.15 K, 100 kPa	1040.26 ± 0.92
313.15 K, 5000 kPa	1042.22 ± 0.93
313.15 K, 10000 kPa	1044.29 ± 0.95
313.15 K, 15000 kPa	1046.25 ± 0.96
313.15 K, 20000 kPa	1048.15 ± 0.97
313.15 K, 25000 kPa	1050.05 ± 0.99
313.15 K, 30000 kPa	1051.8 ± 1
313.15 K, 35000 kPa	1053.63 ± 1
313.15 K, 40000 kPa	1055.42 ± 1
313.15 K, 45000 kPa	1057.11 ± 1.1
313.15 K, 50000 kPa	1058.82 ± 1.1
313.15 K, 55000 kPa	1060.43 ± 1.1
313.15 K, 60000 kPa	1062.05 ± 1.1
313.15 K, 65000 kPa	1063.59 ± 1.1
318.15 K, 100 kPa	1037.22 ± 0.91
318.15 K, 5000 kPa	1039.29 ± 0.93
318.15 K, 10000 kPa	1041.17 ± 0.94
318.15 K, 15000 kPa	1043.3 ± 0.95
318.15 K, 20000 kPa	1045.08 ± 0.96
318.15 K, 25000 kPa	1046.98 ± 0.98
318.15 K, 30000 kPa	1048.91 ± 0.99
318.15 K, 35000 kPa	1050.75 ± 1
318.15 K, 40000 kPa	1052.38 ± 1
318.15 K, 45000 kPa	1054.09 ± 1
318.15 K, 50000 kPa	1055.97 ± 1.1
318.15 K, 55000 kPa	1057.54 ± 1.1
318.15 K, 60000 kPa	1059.3 ± 1.1
318.15 K, 65000 kPa	1060.96 ± 1.1
323.15 K, 100 kPa	1034.21 ± 0.91
323.15 K, 5000 kPa	1036.41 ± 0.92
323.15 K, 10000 kPa	1038.36 ± 0.93
323.15 K, 15000 kPa	1040.45 ± 0.94
323.15 K, 20000 kPa	1042.21 ± 0.96
323.15 K, 25000 kPa	1044.3 ± 0.97
323.15 K, 30000 kPa	1046.05 ± 0.99
323.15 K, 35000 kPa	1047.94 ± 1
323.15 K, 40000 kPa	1049.73 ± 1
323.15 K, 45000 kPa	1051.45 ± 1
323.15 K, 50000 kPa	1053.22 ± 1.1
323.15 K, 55000 kPa	1054.85 ± 1.1
323.15 K, 60000 kPa	1056.49 ± 1.1
323.15 K, 65000 kPa	1058.03 ± 1.1
328.15 K, 100 kPa	1031.21 ± 0.9
328.15 K, 5000 kPa	1033.17 ± 0.91
328.15 K, 10000 kPa	1035.31 ± 0.92
328.15 K, 15000 kPa	1037.3 ± 0.94
328.15 K, 20000 kPa	1039.35 ± 0.95
328.15 K, 25000 kPa	1041.31 ± 0.96
328.15 K, 30000 kPa	1042.96 ± 0.98
328.15 K, 35000 kPa	1044.93 ± 0.99
328.15 K, 40000 kPa	1046.72 ± 1
328.15 K, 45000 kPa	1048.66 ± 1
328.15 K, 50000 kPa	1050.54 ± 1
328.15 K, 55000 kPa	1052.18 ± 1.1
328.15 K, 60000 kPa	1053.85 ± 1.1
328.15 K, 65000 kPa	1055.47 ± 1.1
333.15 K, 100 kPa	1027.63 ± 0.89
333.15 K, 5000 kPa	1030.21 ± 0.91
333.15 K, 10000 kPa	1032.34 ± 0.92
333.15 K, 15000 kPa	1034.45 ± 0.93
333.15 K, 20000 kPa	1036.45 ± 0.94
333.15 K, 25000 kPa	1038.36 ± 0.95
333.15 K, 30000 kPa	1040.39 ± 0.97
333.15 K, 35000 kPa	1042.19 ± 0.98
333.15 K, 40000 kPa	1044.05 ± 1
333.15 K, 45000 kPa	1045.58 ± 1
333.15 K, 50000 kPa	1047.67 ± 1
333.15 K, 55000 kPa	1049.26 ± 1.1
333.15 K, 60000 kPa	1051.06 ± 1.1
333.15 K, 65000 kPa	1052.61 ± 1.1

Source: the NIST ThermoML archive (doi:10.1016/j.fluid.2011.12.029)
